Data as given in patent US20250109127A1, “METHODS OF USE OF PHENOXYPROPYLAMINE COMPOUNDS TO TREAT DEPRESSION” (Minerva Neurosciences, Inc., priority 2013, published 2025).
Where “and” joins values, the source holds several entries; their conditions need not be identical. Equal values may be shown once.

System: HVA release in the rat prefrontal cortex
Experiment: Microdialysis: HVA release in prefrontal cortex after I.P. administration
Type: in vivo
Conditions: Citalopram 10 mg/kg I.P.
Protocol: The aim of the study was to evaluate, using microdialysis, the effects of an intraperitoneal (I.P.) administration in rats of three different doses of SON-117 on dopamine and its metabolites, serotonin and its metabolite (5-HIAA), and norepinephrine levels in prefrontal cortex.
Thirty-two adult male Wistar rats were used for the whole study (4 groups of eight animals planned for the study, Table 1).
Surgery was performed on rats weighing about 300 g at the beginning of the experiments. Rats were anaesthetized with Ketamine (50 mg/kg) & Xylazine (15 mg/kg) by intramuscular administration. The animals were placed in a stereotaxic apparatus in the flat-skull position at a constant setting of −3.3 mm between ear bars and the incisor bar. The animals were treated with a local anesthesic (xylocaine 1%, Astra Zeneca) and an analgesic (Temgesic, from Schering Plough, 0.05 mg/kg, s.c.). A rostrocaudal midline incision was made with a lancet to expose the dorsal skull surface. The “stereotaxic zero” was defined by the Bregma in accordance with Paxinos and Watson's atlas (1986). A hole was drilled in the skull with a drill and the meninges were pierced with a sterile needle to implant a CMA12 guide cannula which later received the dialysis probe.
Coordinates used for implanting guide cannula in prefrontal cortex from Bregma were anteroposterior 3.7 mm, mediolateral 0.8 mm, and dorsoventral −2 mm (top of the probe was at −5 mm). The guide cannula was fixed to the skull with two stainless steel screws (1.88 mm outside diameter) anchored. An application of dental cement was added. A plastic collar allowed each animal to be tethered to a Swivel assembly of the CMA 120 awake animal system. Following surgery, rats were kept in individual cages and allowed to recover for a minimum of 3-5 days before the experimentation. The rats were handled and put in plastic bowl for 10 min at least every day to habituate the animals to their new environment for the dialysis. An I.P. administration with saline was also performed every day.
Dialysis probes (CMA12/3 mm, membrane, 20 kD cut-off, Carnegie Medicine, Stockholm, Sweden), were carefully washed before inserting into the guide cannula. The wash was performed with the artificial cerebrospinal fluid (aCSF) medium (NaCl 147 mM, KCl 2.7 mM, CaCl2 1.2 mM, MgCl2 0.85 mM) at room temperature. The dialysis system was then equilibrated at 20° C. at a perfusion rate of 1 μl/min with a Carnegie pump (CMA100). All catheters (FEP tubing, internal volume of 1.2 μl/10 cm, and tubing adaptors) used for microdialysis were treated in the same conditions.
The probes duly prepared were inserted into the guide cannula and the CMA120 Swivel assembly secured to the animal using a plastic collar. Flow through the dialysis probe with aCSF was maintained at a rate of 1 μl/min during the whole experimentation. The first four fractions (corresponding to 2 hours) were discarded to avoid the effects of parenchymal disturbance and to ensure that an approximate steady-state level was reached. Fractions were then collected over a period of 8.5 h during which time the animals remained quiet. The dialysates were automatically collected with an autosampler (microfraction collector CMA 140, Carnegie Medicin) and stored at −80° C. until analysis. […] Perfusion was then maintained for 7 hours with aCSF. The dialysates (30 μl) were collected into 300 μl vials, transferred into dry ice and then kept frozen (−80° C.) until analysis. Frozen samples were shipped to a partner for analysis. At the end of the microdialysis study, a PBS with colored ink was perfused through the probe in order to visualize the dialyzed area.
Catecholamine assay: Concentrations of dopamine, DOPAC, HVA, 5-HIAA, 5-HT, and norepinephrin were determined for each sample by HPLC coupled with electrochemical detection.

CN(C)CCCC1(c2ccc(F)cc2)OCc2cc(C#N)ccc21 (stereo not shown) [Citalopram, citalopram, reference compound]
HVA in dialysate, MEAN (T0-T30 min): 102.65 % of respective basal
HVA in dialysate, MEAN (T30-T1 h): 105.17 % of respective basal
HVA in dialysate, individual animals (T30-T1 h): 110.26 % of respective basal and 73.39 % of respective basal and 105.80 % of respective basal and 135.08 % of respective basal and 125.22 % of respective basal and 95.29 % of respective basal and 76.23 % of respective basal and 120.12 % of respective basal
HVA in dialysate, MEAN (T1 h 30-T2 h): 106.38 % of respective basal
HVA in dialysate, individual animals (T1 h 30-T2 h): 104.10 % of respective basal and 113.65 % of respective basal and 118.49 % of respective basal and 112.13 % of respective basal and 90.95 % of respective basal and 85.54 % of respective basal and 119.96 % of respective basal
HVA in dialysate, MEAN (T1 h-T1 h 30): 112.92 % of respective basal
HVA in dialysate, individual animals (T1 h-T1 h 30): 120.80 % of respective basal and 108.77 % of respective basal and 119.99 % of respective basal and 133.87 % of respective basal and 130.19 % of respective basal and 94.21 % of respective basal and 78.63 % of respective basal and 116.88 % of respective basal
HVA in dialysate, MEAN (T2 h 30-T3 h): 99.23 % of respective basal
HVA in dialysate, individual animals (T2 h 30-T3 h): 86.24 % of respective basal and 96.34 % of respective basal and 105.81 % of respective basal and 109.56 % of respective basal and 114.62 % of respective basal and 86.75 % of respective basal and 85.57 % of respective basal and 108.98 % of respective basal
HVA in dialysate, MEAN (T2 h-T2 h 30): 104.43 % of respective basal
HVA in dialysate, individual animals (T2 h-T2 h 30): 119.22 % of respective basal and 102.87 % of respective basal and 120.09 % of respective basal and 114.29 % of respective basal and 113.51 % of respective basal and 80.94 % of respective basal and 78.69 % of respective basal
HVA in dialysate, MEAN (T3 h 30-T4 h): 106.01 % of respective basal
HVA in dialysate, individual animals (T3 h 30-T4 h): 116.4 % of respective basal and 101.70 % of respective basal and 115.15 % of respective basal and 111.71 % of respective basal and 116.15 % of respective basal and 91.42 % of respective basal and 83.19 % of respective basal and 112.34 % of respective basal
HVA in dialysate, MEAN (T3 h-T3 h 30): 99.27 % of respective basal
HVA in dialysate, individual animals (T3 h-T3 h 30): 120.94 % of respective basal and 53.98 % of respective basal and 122.37 % of respective basal and 100.07 % of respective basal and 116.40 % of respective basal and 87.92 % of respective basal and 83.63 % of respective basal and 108.86 % of respective basal
HVA in dialysate, MEAN (T4 h 30-T5 h): 104.36 % of respective basal
HVA in dialysate, individual animals (T4 h 30-T5 h): 122.34 % of respective basal and 105.68 % of respective basal and 105.06 % of respective basal and 88.58 % of respective basal and 115.04 % of respective basal and 93.59 % of respective basal and 99.55 % of respective basal and 105.03 % of respective basal
HVA in dialysate, MEAN (T4 h-T4 h 30): 102.95 % of respective basal
HVA in dialysate, individual animals (T4 h-T4 h 30): 114.29 % of respective basal and 100.59 % of respective basal and 112.89 % of respective basal and 101.71 % of respective basal and 116.86 % of respective basal and 75.84 % of respective basal and 89.63 % of respective basal and 111.78 % of respective basal
HVA in dialysate, MEAN (T5 h 30-T6 h): 101.24 % of respective basal
HVA in dialysate, individual animals (T5 h 30-T6 h): 117.67 % of respective basal and 97.79 % of respective basal and 98.75 % of respective basal and 98.06 % of respective basal and 103.48 % of respective basal and 81.28 % of respective basal
HVA in dialysate, MEAN (T5 h-T5 h 30): 90.91 % of respective basal
HVA in dialysate, individual animals (T5 h-T5 h 30): 56.25 % of respective basal and 103.6 % of respective basal and 88.87 % of respective basal and 96.67 % of respective basal and 94.02 % of respective basal and 92.05 % of respective basal and 104.93 % of respective basal
HVA in dialysate, MEAN (T6 h 30-T7 h): 96.98 % of respective basal
HVA in dialysate, individual animals (T6 h 30-T7 h): 91.33 % of respective basal and 101.80 % of respective basal and 95.80 % of respective basal and 96.50 % of respective basal and 91.69 % of respective basal and 93.72 % of respective basal and 98.54 % of respective basal
HVA in dialysate, MEAN (T6 h-T6 h 30): 98.82 % of respective basal
HVA in dialysate, individual animals (T6 h-T6 h 30): 123.42 % of respective basal and 100.15 % of respective basal and 101.33 % of respective basal and 91.37 % of respective basal and 91.61 % of respective basal and 99.80 % of respective basal and 86.50 % of respective basal and 96.35 % of respective basal
HVA in dialysate, MEAN (T-30 min-T0 (pre-dose)): 100.15 % of respective basal
HVA in dialysate, MEAN (T-1 h 30-T-1 h (pre-dose)): 103.32 % of respective basal
HVA in dialysate, individual animals (T-1 h 30-T-1 h (pre-dose)): 98.60 % of respective basal and 95.37 % of respective basal
HVA in dialysate, MEAN (T-1 h-T-30 min (pre-dose)): 97.36 % of respective basal
